These results are taken from US20090156666A1, “NOVEL COMPOSITIONS AND USE THEREOF FOR THE TREATMENT, CO-TREATMENT OR PREVENTION OF INFLAMMATORY DISORDERS” (priority 2007, published 2009).

The test system of experiment [1] is collagen I. In words: Gene expression (mRNA, RT-PCR) in normal human chondrocytes: collagen I. The format is cell-based. Particulars: 50 μmol/L; 4 hrs; % of unstimulated cells (100%). Here is the method:
(§1) The effect of a MA/HO (1:3 w/w) mixture in combination with glucosamine was tested on the expression of human aggrecan, collagen I, collagen II, or chondrocyte transcription factors (SOX-6, -9) in vitro in normal human chondrocytes (derived from knee) (CC-2550; Cambrex, respectively). A control experiment without the compounds was done concomitantly to compare the expression of these genes (percentage expression of gene in controls was set to 100%). […] The level of mRNA was determined by RT-PCR (Richard et al. Mol. Nutr. Food Res. 49, 431-442, 2005) and expressed relative to the level observed in cells cultured without the substances. The given values indicate the level of gene expression (in % of unstimulated cells [set at 100%] for anabolic and anti-catabolic genes; in % of IL1β-treated cells [set at 100%], for catabolic genes). […] Yet, when combined the observed increase in gene expression exceeded the expected one reflecting synergism.

The subject of experiment [2] is MMP-9. The experiment can be described thus: Gene expression (mRNA, RT-PCR) in normal human chondrocytes: MMP-9 (catabolic). The format is cell-based. Particulars: 50 μmol/L; stim. 4 hrs; % of IL1β-treated cells (100%).
Excerpt: as §1, with “Catabolic events are controlled by the expression of genes, e.g. those genes that encode matrix metalloproteinases (MMPs) that eventually break down collagen or proteoglycans (ADAMTS-4, -5). Of the MMPs, MMP-1 and MMP-3 have a major role in breaking down the ECM in cartilage degradation. Some genes including TIMPS-1 (tissue-inhibitor of MMPs) have anti-catabolic effects and thus contribute to prevention of tissue erosion. The effect” for “The effect”

Experiment [3] deals with nitric oxide (NO) synthesis in RAW264.7 cells. The experiment can be described thus: Inhibition of nitric oxide synthesis in LPS-stimulated RAW264.7 macrophages (Griess reaction). It counts as cell-based, murine. Particulars: single substances. On the technique in general: Nitrite, measured by Griess reagent, commonly stands in for NO production.
The test system of experiment [4] is ADAMTS-4. In words: Gene expression (mRNA, RT-PCR) in normal human chondrocytes: ADAMTS-4 (catabolic). It counts as cell-based. To be noted: 50 μmol/L; unstim. 4 d; % of control (100%). The source says: Catabolic events are controlled by the expression of genes, e.g. those genes that encode matrix metalloproteinases (MMPs) that eventually break down collagen or proteoglycans (ADAMTS-4, -5). Of the MMPs, MMP-1 and MMP-3 have a major role in breaking down the ECM in cartilage degradation. Some genes including TIMPS-1 (tissue-inhibitor of MMPs) have anti-catabolic effects and thus contribute to prevention of tissue erosion. The effect of a MA/HO (1:3 w/w) mixture in combination with glucosamine was tested on the expression of human aggrecan, collagen I, collagen II, or chondrocyte transcription factors (SOX-6, -9) in vitro in normal human chondrocytes (derived from knee) (CC-2550; Cambrex, respectively). A control experiment without the compounds was done concomitantly to compare the expression of these genes (percentage expression of gene in controls was set to 100%). […] The level of mRNA was determined by RT-PCR (Richard et al. Mol. Nutr. Food Res. 49, 431-442, 2005) and expressed relative to the level observed in cells cultured without the substances. […] […] Yet, when combined the observed increase in gene expression exceeded the expected one reflecting synergism.

Experiment [5] relates to TMP-I. In words: Gene expression (mRNA, RT-PCR) in normal human chondrocytes: TMP-I (anti-catabolic). It counts as cell-based. Particulars: 50 μmol/L; 4 hrs; % of unstimulated cells (100%). From the text:
Catabolic events are controlled by the expression of genes, e.g. those genes that encode matrix metalloproteinases (MMPs) that eventually break down collagen or proteoglycans (ADAMTS-4, -5). Of the MMPs, MMP-1 and MMP-3 have a major role in breaking down the ECM in cartilage degradation. Some genes including TIMPS-1 (tissue-inhibitor of MMPs) have anti-catabolic effects and thus contribute to prevention of tissue erosion. The effect of a MA/HO (1:3 w/w) mixture in combination with glucosamine was tested on the expression of human aggrecan, collagen I, collagen II, or chondrocyte transcription factors (SOX-6, -9) in vitro in normal human chondrocytes (derived from knee) (CC-2550; Cambrex, respectively). A control experiment without the compounds was done concomitantly to compare the expression of these genes (percentage expression of gene in controls was set to 100%). […] The level of mRNA was determined by RT-PCR (Richard et al. Mol. Nutr. Food Res. 49, 431-442, 2005) and expressed relative to the level observed in cells cultured without the substances. The given values indicate the level of gene expression (in % of unstimulated cells [set at 100%] for anabolic and anti-catabolic genes; in % of IL1β-treated cells [set at 100%], for catabolic genes). […] Yet, when combined the observed increase in gene expression exceeded the expected one reflecting synergism.

The test system of experiment [6] is collagen II. The experiment can be described thus: Gene expression (mRNA, RT-PCR) in normal human chondrocytes: collagen II. The format is cell-based. Particulars: 50 μmol/L; 4 hrs; % of unstimulated cells (100%). The procedure:
as §1

For experiment [7], the system named is human aggrecan. In words: Gene expression (mRNA, RT-PCR) in normal human chondrocytes: aggrecan. It counts as cell-based. Particulars: 50 μmol/L; 4 hrs; % of unstimulated cells (100%). The procedure: as §1

As for `N[C@H]1C(O)O[C@H](CO)[C@@H](O)[C@@H]1O.O=S(=O)(O)O` (some centres unmarked) [Glucosamine sulfate, glucosamine sulfate], in experiment [1], the “Collagen 1 gene expression level” value was 121%. The “MMP-9 gene expression level” value in experiment [2] is 114%. Besides, the “anti-inflammatory activity (in words)” value in experiment [3] (LPS-stimulated, nitric oxide) was “marginal anti-inflammatory”. Also, the IC50 in experiment [3] (Mus musculus, LPS 1 μg/ml, 24 hours) was greater than 100 µM. In addition, the “ADAMTS-4 gene expression level” value in experiment [4] worked out at 101%. Further, in experiment [5], the “TMP-I gene expression level” value is recorded as 110%. Further, in experiment [6], the “Collagen II gene expression level” value worked out at 154%. Also, the “Aggrecan gene expression level” value in experiment [7] stood at 81%.

As usually defined, the IC50 is the concentration needed to halve the response being measured. Lower therefore signals greater potency.
